Several values for one entry are separate records, joined by “and”; a condition that tells them apart may be missing. Identical values can stand only once.
What was measured:
p53/hDM2 interaction = p53/hDM2 interaction (Homo sapiens, UniProt Q00987); test: Fluorescence anisotropy competition assay against p53/hDM2; format: binding; settings: FITC-p53 15-31 tracer; for IC50: 50 mM phosphate pH 7.5, 200 mM NaCl, 0.02 mg/mL BSA
From the text: The calculation was run to generate 10 000 conformer sets, of which the lowest energy […]
in total) were retained for docking experiments. The lowest energy conformers belong to the same family of conformers and are well superimposed with the first lowest energy […]
protein (from 4YGW) and S-protein in complex with dApTpApApG (1RCN) using Glide XP method.11-13 All of the input ligands gave a pose in the S-protein binding groove. The […]
12, were refined using the induced fit docking against S-protein in complex with the oligonucleotide. Side chains of S-protein binding groove were automatically trimmed (based on B-factor) during docking calculation and restored for the final refinement.
The library of hybrid mimetics were docked as flexible ligands against the S-protein in complex with the oligonucleotide fragment using Glide XP (extra precision) method.11-13 […]
ligands against S-protein in complex with the oligonucleotide fragment using Glide XP method11-13 and refined using induced fit docking (Fig S7).
The fluorescein-labelled p5315-31–Flu 3,4 was purchased from peptide protein research Ltd.
Fluorescence anisotropy assays were performed in 384-well black plates (Greiner Bio-one). Each experiment was run in triplicate and fluorescence anisotropy was measured using a Perkin Elmer EnVisionTM 2103 MultiLabel plate reader. […]
For control wells in both assays, the tracer peptide was replaced with an identical volume of assay buffer. […] Plates were read after 1 h of incubation at room temperature. […]
The average anisotropy (across three experimental replicates) and the standard deviation of these values were then calculated and fit to a sigmoidal logistic model (Equation 3) using OriginPro 9.0 which provided the IC50 and error values. […]
UV absorbance analyses were recorded in a 1 mm path-length quartz cuvette on a Perkin Elmer Lambda 900 UV/VIS/NIR spectrometer.
High-resolution mass spectrometry (HRMS) data was recorded using electrospray ionization in positive mode (ESI+) with a Bruker MaXis Impact spectrometer. […]

RNase S-protein [1] = molecular target: T1, RNase S-protein (Bos taurus, UniProt P61823); test: RNA degradation assay (EtBr fluorescence), reactivation of S-protein; format: biochemical, bovine; parameters: S-protein22-124; host or cells: none: purchased RNase A digested with subtilisin, S-protein purified by RP-HPLC; settings: for % remaining fluorescence (100 µM): 100 µM compound, 0.05 µM S-protein, 45 min, 25 °C, Tris pH 6.5
T1 sequence (P61823 48-150): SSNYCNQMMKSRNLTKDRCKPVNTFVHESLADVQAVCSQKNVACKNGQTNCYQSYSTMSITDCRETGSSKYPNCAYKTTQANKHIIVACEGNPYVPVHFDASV

S-protein [2] = molecular target: T2, S-protein (Bos taurus, UniProt P61823); test: Isothermal titration calorimetry with S-protein; format: binding, bovine
T2 construct: S-protein22-124; host or cells: none: purchased RNase A digested with subtilisin, S-protein purified by RP-HPLC
T2 sequence (P61823 48-150): T1 sequence (P61823 48-150)

S-protein [3] = molecular target: T2, S-protein; test: Native ESI-MS of S-protein complexes; format: binding, bovine
RNase S-protein [4] = molecular target: T3, RNase S-protein (Bos taurus, UniProt P61823); test: Regulation of S-protein activity by hDM2 (RNA degradation assay); settings: hDM2 10 μM; 1a 100 μM or S-peptide 0.4 μM with S-protein
T3 sequence (P61823 47-150 limits assumed): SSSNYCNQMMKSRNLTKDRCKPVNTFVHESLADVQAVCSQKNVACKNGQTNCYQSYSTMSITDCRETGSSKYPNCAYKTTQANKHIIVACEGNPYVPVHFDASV

RNase S-protein [5] = molecular target: T1, RNase S-protein; test: Kinetics of RNA hydrolysis by S-protein with S-peptide or mimetic; settings: S-protein 0.05 µM, S-peptide 0.4 µM or 1a 100 µM
[6] = S-protein titrated into mimetic, 37 °C

Compound: CC(C)Oc1cc(NC(=O)[C@H](Cc2ccccc2)NC(=O)c2ccc(N)c(OCc3ccc4ccccc4c3)c2)ccc1C(=O)NCC(=O)O [Compound 4]
- IC50 (p53/hDM2 interaction): 8.1 ± 0.3 µM
- % remaining fluorescence (100 µM) (RNase S-protein [1]): 44%

Compound: CC(C)Oc1cc(NC(=O)[C@H](Cc2ccccc2)NC(=O)c2ccc(N)c(OCc3ccc(Cl)cc3)c2)ccc1C(=O)NCC(=O)O [Compound 1a]
- IC50 (p53/hDM2 interaction): 10.9 µM and ~10 µM
- Kd (S-protein [2]): 1.85 ± 0.97 µM
- H (kcal/mol), ITC (S-protein [2]; [6]): -19.04 ± 1.90 kcal/mol
- S (cal/molK), ITC (S-protein [2]; [6]): -35.2 cal/molK
- n (ITC stoichiometry) (S-protein [2]; [6]): 0.089 and 0.1
- S-protein/mimetic complexes detected by native ESI-MS (S-protein [3]; 5-fold excess of mimetic (10 μM) relative to S-protein (2 μM)): 1 : 1 complex and a lower intensity 1 : 2 S-protein/mimetic 1a complex could be detected
- ternary complex in native MS competition with increasing S-peptide (S-protein [3]; S-protein and 1a constant, increasing S-peptide): no ternary complex could be detected
- effect of added hDM2 on RNA hydrolysis (RNase S-protein [4]): suppressed
- V0, average initial rate of RNA degradation (RNase S-protein [5]; CRNA 50): 0.016 ± 0.001 g/mL/s
- V0, average initial rate of RNA degradation (RNase S-protein [5]; CRNA 75): 0.04 ± 0.004 g/mL/s
- V0, average initial rate of RNA degradation (RNase S-protein [5]; CRNA 125): 0.088 ± 0.009 g/mL/s
- V0, average initial rate of RNA degradation (RNase S-protein [5]; CRNA 200): 0.126 ± 0.011 g/mL/s
- V0, average initial rate of RNA degradation (RNase S-protein [5]; CRNA 300): 0.168 ± 0.016 g/mL/s
- V0, average initial rate of RNA degradation (RNase S-protein [5]; CRNA 425): 0.211 ± 0.032 g/mL/s
- V0, average initial rate of RNA degradation (RNase S-protein [5]; CRNA 575): 0.254 ± 0.053 g/mL/s
- % remaining fluorescence (100 µM) (RNase S-protein [1]): 40%
- activity in RNA degradation assay at a single concentration (SAR set 1a-1d) (RNase S-protein [1]; single concentration, 20 µL of 1 mM stock in 200 µL): active

Compound: Ac-KETAAAKFERQHMDS-NH2 [S-peptide, reference compound]
- competition with fluorescently labelled p53 peptide for hDM2 (p53/hDM2 interaction): did not compete
- Kd (S-protein [2]): 0.13 ± 0.02 µM
- effect of added hDM2 on RNA hydrolysis (RNase S-protein [4]): no effect on catalysis
- V0, average initial rate of RNA degradation (RNase S-protein [5]; CRNA 50): 0.057 ± 0.002 g/mL/s
- V0, average initial rate of RNA degradation (RNase S-protein [5]; CRNA 75): 0.097 ± 0.004 g/mL/s
- V0, average initial rate of RNA degradation (RNase S-protein [5]; CRNA 125): 0.159 ± 0.008 g/mL/s
- V0, average initial rate of RNA degradation (RNase S-protein [5]; CRNA 200): 0.226 ± 0.011 g/mL/s
- V0, average initial rate of RNA degradation (RNase S-protein [5]; CRNA 300): 0.296 ± 0.029 g/mL/s
- V0, average initial rate of RNA degradation (RNase S-protein [5]; CRNA 425): 0.362 ± 0.037 g/mL/s
- V0, average initial rate of RNA degradation (RNase S-protein [5]; CRNA 575): 0.431 ± 0.050 g/mL/s

From PMC6461108, “A catalytic protein–proteomimetic complex: using aromatic oligoamide foldamers as activators of RNase S” (Chemical Science, 2019)
